Data from article PMC8445847 (iScience, 2021).
Read-outs that look alike come from different tables or passages of the source. One block for each molecule: values may come before it.

Assays:
Z-138 cells = test: Annexin V/propidium iodide apoptosis assay; format: cell-based, human; conditions: up to 5 μM, 24 h, Annexin V/PI
JeKo-1 cells [1] = test: Alamar Blue cell viability assay; format: cell-based, human; conditions: read-out: antiproliferative IC50 JeKo-1
[2] = relapsed-refractory MCL; ref Byrd et al., 2013; Sarkozy and Ribrag, 2020; cited from earlier work
[3] = test system: pPLCγ2(Y759) in JeKo-1 cells; test: Western blot of IgM-stimulated cells; format: cell-based, human; conditions: IgM-stimulated JeKo-1 cells, 1 hr
JeKo-1 and Mino cells = test: apoptosis after drug washout; format: cell-based, human; conditions: 5 μM, treated 4 or 8 h, analyzed 16 or 20 h post washout
Mino cells [4] = test: Annexin V/propidium iodide apoptosis assay; format: cell-based, human; conditions: up to 5 μM, 24 h, Annexin V/PI
[5] = test system: Ibrutinib-resistant Granta cells; test: Alamar Blue cell viability assay; format: cell-based; conditions: Homo sapiens, 48 h, read-out: antiproliferative IC50 Granta
Mino cells [6] = test: Alamar Blue cell viability assay; format: cell-based, human; conditions: 48 h, read-out: antiproliferative IC50 Mino
JeKo-1 cells [7] = test: Annexin V/propidium iodide apoptosis assay; format: cell-based, human; conditions: up to 5 μM, 24 h, Annexin V/PI
[8] = test system: BRD4 occupancy at the cMYC promoter in JeKo-1 cells; test: BRD4 ChIP assay at the cMYC promoter; format: cell-based, human; conditions: 1 μM, 24 h
[9] = test system: pBTK(Y223) and pAKT(S473) in Mino cells; test: Western blot of IgM-stimulated cells; format: cell-based, human; conditions: 1 hr
BRD4 BD2 [10] = test: NMR titration; format: binding; conditions: 15N-labeled protein, PBS pH 6.8
Mino BTK-WT cells = test: cell viability assay, engineered BTK cell lines; format: cell-based, human; conditions: read-out: IC50 Mino BTK-WT; 48 h
JeKo-1 MCL tumors = test: JeKo-1 MCL xenograft tumor model; format: in vivo; conditions: 60 mg/kg daily by oral gavage; SRX3262 vs Ibrutinib-treated mice
PI3Kδ = PI3Kδ (Homo sapiens, UniProt O00329); test: in vitro kinase assay; format: biochemical; conditions: read-out: IC50 PI3Kδ
Mino BTK-C481S cells = test: cell viability assay, engineered BTK cell lines; format: cell-based, human; conditions: read-out: IC50 Mino BTK-C481S; 48 h, Ibrutinib-resistant BTK-C481S
BTK = BTK (Homo sapiens, UniProt Q06187); test: in vitro kinase assay; format: biochemical; conditions: read-out: IC50 BTK
[11] = test system: cMYC protein in Jeko-1 and Mino cells; test: Western blot of cMYC; format: cell-based, human
BRD4 BD2 [12] = target: BRD4 BD2 (Homo sapiens, UniProt O60885); test: Alpha Screen assay against tetra-acetylated histone H4 peptide; format: binding; conditions: read-out: IC50 BRD4 BD2
[13] = test system: JeKo-1 chronic Ibrutinib-resistant cell line; test: Cell titer Glow viability assay; format: cell-based, human
[14] = test system: BTK and AKT phosphorylation in Mino cells; test: inhibitor washout assay; conditions: 1 h treatment, 24 h post washout
JeKo-1 BTK-C481S cells = test: cell viability assay, engineered BTK cell lines; format: cell-based, human; conditions: read-out: IC50 JeKo-1 BTK-C481S; 48 h, Ibrutinib-resistant BTK-C481S
JeKo-1 cells [15] = test: cell cycle analysis; format: cell-based, human; conditions: JeKo-1, 1–5 μM, 24 h
[16] = test system: JeKo-1 BTK-WT, JeKo-1 BTK-C481S and Mino BTK-C481S cells; conditions: up to 5 μM
JeKo-1 BTK-WT cells = test: cell viability assay, engineered BTK cell lines; format: cell-based, human
BRD4 BD1 [17] = target: BRD4 BD1 (Homo sapiens, UniProt O60885); test: Alpha Screen assay against tetra-acetylated histone H4 peptide; format: binding; conditions: read-out: IC50 BRD4 BD1
PI3Kα = PI3Kα (Homo sapiens, UniProt P42336); test: in vitro kinase assay; format: biochemical; conditions: read-out: IC50 PI3Kα
[18] = test system: cMYC, BCL2 and HEXIM1 expression in JeKo-1 and Mino cells; test: qRT-PCR of BRD4 target genes; format: cell-based, human; conditions: 1 and 2.5 μM, 24 hr
BRD4 BD1 [19] = test: NMR titration; format: binding; conditions: 15N-labeled protein, PBS pH 6.8

Chain of BTK (Q06187 whole entry): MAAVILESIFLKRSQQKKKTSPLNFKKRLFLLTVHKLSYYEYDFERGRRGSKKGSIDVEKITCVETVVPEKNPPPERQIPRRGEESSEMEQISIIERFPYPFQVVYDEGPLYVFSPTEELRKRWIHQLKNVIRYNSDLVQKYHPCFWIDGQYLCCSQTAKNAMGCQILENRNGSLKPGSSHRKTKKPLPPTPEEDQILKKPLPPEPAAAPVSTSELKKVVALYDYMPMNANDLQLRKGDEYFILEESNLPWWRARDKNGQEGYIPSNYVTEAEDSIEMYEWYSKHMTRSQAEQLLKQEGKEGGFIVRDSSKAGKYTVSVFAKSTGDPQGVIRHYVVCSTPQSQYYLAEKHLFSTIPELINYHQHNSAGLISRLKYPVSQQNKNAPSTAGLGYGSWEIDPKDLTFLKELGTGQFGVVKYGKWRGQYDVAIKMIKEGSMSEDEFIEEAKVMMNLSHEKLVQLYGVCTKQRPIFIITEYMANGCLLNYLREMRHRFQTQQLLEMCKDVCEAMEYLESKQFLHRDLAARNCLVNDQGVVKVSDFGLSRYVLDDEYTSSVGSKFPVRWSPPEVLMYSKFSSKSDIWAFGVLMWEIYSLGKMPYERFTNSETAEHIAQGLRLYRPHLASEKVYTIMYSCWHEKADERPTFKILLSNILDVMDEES
Chain of PI3Kα (P42336 whole entry): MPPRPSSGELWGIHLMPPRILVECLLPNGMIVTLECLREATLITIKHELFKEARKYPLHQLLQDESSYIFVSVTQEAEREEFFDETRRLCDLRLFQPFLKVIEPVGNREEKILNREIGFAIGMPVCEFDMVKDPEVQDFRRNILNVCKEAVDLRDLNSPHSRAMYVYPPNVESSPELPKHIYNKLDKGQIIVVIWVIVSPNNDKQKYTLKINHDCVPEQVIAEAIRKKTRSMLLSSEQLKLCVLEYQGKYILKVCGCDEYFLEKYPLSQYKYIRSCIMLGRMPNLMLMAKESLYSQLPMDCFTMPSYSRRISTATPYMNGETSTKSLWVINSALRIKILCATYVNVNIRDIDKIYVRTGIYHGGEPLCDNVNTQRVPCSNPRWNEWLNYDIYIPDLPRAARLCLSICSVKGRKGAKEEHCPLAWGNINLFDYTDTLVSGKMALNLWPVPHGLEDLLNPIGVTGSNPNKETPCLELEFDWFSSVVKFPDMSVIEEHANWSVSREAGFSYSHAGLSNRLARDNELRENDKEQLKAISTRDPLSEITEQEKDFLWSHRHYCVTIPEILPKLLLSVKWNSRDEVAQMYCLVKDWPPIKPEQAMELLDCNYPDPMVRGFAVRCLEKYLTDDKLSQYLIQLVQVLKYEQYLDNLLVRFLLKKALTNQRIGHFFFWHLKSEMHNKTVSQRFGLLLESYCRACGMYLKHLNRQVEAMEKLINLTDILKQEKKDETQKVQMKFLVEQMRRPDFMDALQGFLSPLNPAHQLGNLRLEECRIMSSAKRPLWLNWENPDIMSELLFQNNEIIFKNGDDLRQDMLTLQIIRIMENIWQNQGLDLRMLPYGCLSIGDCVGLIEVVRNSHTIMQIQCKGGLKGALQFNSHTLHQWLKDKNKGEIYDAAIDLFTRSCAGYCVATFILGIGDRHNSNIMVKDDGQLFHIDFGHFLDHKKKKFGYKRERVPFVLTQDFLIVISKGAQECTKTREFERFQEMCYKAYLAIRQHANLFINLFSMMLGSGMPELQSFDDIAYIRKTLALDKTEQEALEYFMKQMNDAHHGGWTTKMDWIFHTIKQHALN
Chain of PI3Kα (P27986 whole entry partner): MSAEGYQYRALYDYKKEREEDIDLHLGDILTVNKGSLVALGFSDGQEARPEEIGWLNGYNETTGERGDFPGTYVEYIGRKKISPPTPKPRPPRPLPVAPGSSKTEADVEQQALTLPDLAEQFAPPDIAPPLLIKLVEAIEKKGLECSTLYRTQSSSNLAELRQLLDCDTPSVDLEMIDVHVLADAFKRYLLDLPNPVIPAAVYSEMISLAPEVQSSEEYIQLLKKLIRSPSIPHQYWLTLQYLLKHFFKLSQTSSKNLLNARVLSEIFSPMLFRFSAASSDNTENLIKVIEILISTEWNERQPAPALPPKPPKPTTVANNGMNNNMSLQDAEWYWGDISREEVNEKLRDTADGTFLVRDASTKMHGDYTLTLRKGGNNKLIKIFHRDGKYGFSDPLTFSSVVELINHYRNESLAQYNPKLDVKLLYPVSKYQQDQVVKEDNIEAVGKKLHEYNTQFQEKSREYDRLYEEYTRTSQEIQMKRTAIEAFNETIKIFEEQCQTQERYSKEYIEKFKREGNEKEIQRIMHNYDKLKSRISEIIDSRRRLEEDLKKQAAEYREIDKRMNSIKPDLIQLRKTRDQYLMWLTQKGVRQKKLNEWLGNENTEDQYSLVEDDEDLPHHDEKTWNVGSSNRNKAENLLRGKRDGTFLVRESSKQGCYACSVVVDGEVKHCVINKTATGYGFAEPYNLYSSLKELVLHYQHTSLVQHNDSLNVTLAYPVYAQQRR
Chain of PI3Kδ (O00329 whole entry): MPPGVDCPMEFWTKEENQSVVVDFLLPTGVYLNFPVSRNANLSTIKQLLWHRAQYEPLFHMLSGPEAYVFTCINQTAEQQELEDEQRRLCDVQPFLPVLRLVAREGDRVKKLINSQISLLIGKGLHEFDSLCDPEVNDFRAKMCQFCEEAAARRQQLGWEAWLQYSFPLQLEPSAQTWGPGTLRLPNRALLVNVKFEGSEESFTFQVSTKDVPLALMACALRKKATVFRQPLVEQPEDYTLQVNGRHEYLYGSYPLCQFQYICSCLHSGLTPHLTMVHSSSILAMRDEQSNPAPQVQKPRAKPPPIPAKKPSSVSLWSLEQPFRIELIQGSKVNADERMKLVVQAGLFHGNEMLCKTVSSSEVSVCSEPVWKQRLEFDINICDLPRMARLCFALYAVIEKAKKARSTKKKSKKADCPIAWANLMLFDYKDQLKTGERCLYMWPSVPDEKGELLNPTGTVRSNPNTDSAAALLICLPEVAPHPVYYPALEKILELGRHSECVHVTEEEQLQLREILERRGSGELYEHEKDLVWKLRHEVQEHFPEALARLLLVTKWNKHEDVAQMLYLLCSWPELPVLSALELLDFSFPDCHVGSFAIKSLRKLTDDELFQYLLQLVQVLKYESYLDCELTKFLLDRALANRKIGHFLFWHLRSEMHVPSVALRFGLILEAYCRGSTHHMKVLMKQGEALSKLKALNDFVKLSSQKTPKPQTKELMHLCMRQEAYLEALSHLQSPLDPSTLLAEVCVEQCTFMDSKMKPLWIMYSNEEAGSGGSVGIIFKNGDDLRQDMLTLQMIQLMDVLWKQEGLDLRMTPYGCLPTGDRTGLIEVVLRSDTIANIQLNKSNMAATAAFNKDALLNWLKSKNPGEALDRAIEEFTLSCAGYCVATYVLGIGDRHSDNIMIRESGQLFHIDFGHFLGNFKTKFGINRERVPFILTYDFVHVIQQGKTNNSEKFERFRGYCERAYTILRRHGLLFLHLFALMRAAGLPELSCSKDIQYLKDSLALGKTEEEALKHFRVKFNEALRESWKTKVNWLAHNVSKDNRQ
Chain of PI3Kδ (P27986 whole entry partner): as the sequence (P27986 whole entry partner) above

Compound: C=CC(=O)N1CCC[C@@H](n2nc(-c3ccc(Oc4ccccc4)cc3)c3c(N)ncnc32)C1 [Ibrutinib, reference compound]
- apoptosis Z-138 (Z-138 cells): mild effect
- IC50 (JeKo-1 cells [1]; Homo sapiens, JeKo-1, 48 h): 8 µM
- complete response [2]: 23%
- objective response rate [2]: 68%
- phosphorylation of PLCγ2 [3]: inhibited phosphorylation of PLCγ2
- cells undergoing apoptosis after drug washout (JeKo-1 and Mino cells): 20–30%
- apoptosis Mino (Mino cells [4]): mild effect
- IC50 [5]: 20 µM
- IC50 (Mino cells [6]; Homo sapiens, MINO): 6.5 µM
- apoptosis JeKo-1 (JeKo-1 cells [7]): no effect

Compound: Cc1sc2c(c1C)C(c1ccc(Cl)cc1)=N[C@@H](CC(=O)OC(C)(C)C)c1nnc(C)n1-2 [JQ1, reference compound]
- BRD4 localization at the cMYC promoter site [8]: decreased

- binding to BRD4 BD2 (chemical shift perturbations) (BRD4 BD2 [10]): binds to both BD1 and BD2
- IC50 (PI3Kδ): 0.016 µM
- IC50 (BTK): 0.035 µM
- IC50 (BRD4 BD2 [12]): 0.348 µM
- IC50 (BRD4 BD1 [17]): 0.228 µM
- IC50 (PI3Kα): 0.064 µM
- binding to BRD4 BD1 (chemical shift perturbations) (BRD4 BD1 [19]): binds to both BD1 and BD2
Compound: C=CC(=O)N1CCOc2ccc(-c3csc4c(=O)cc(N5CCOCC5)oc34)cc21 [SRX3262]
- phosphorylation of S473 in AKT [9]: inhibited phosphorylation
- phosphorylation of Y223 in BTK [9]: inhibited phosphorylation
- IC50 (Mino BTK-WT cells): 0.69 µM
- apoptosis Z-138 (Z-138 cells): dramatically increased apoptosis
- body weight (JeKo-1 MCL tumors): did not observe any notable changes in body weight
- IC50 (JeKo-1 cells [1]; Alamar Blue, 48 h): 0.62 µM
- phosphorylation of PLCγ2 [3]: inhibited phosphorylation of PLCγ2
- IC50 (Mino BTK-C481S cells): 0.38 µM
- BRD4 localization at the cMYC promoter site [8]: decreased
- cMYC protein level [11]: decreased the cMYC protein level
- cells undergoing apoptosis after drug washout (JeKo-1 and Mino cells): 40–70%
- decrease in cell viability compared to Ibrutinib [13]: 3–6 times
- AKT phosphorylation after inhibitor washout [14]: sustained inhibition of AKT phosphorylation
- IC50 (JeKo-1 BTK-C481S cells): 0.73 µM
- cell cycle arrest (JeKo-1 cells [15]): induced G2 phase cell cycle arrest
- apoptosis Mino (Mino cells [4]): dramatically increased apoptosis
- apoptosis in BTK-WT and Ibrutinib-resistant BTK-C481S cells [16]: increase in apoptotic cell death
- times more effective than Ibrutinib (JeKo-1 BTK-WT cells; both JeKo-1 BTK-WT and JeKo-1 BTK-C481S cells): 20–27 times
- IC50 (JeKo-1 BTK-WT cells; read-out: IC50 JeKo-1 BTK-WT, 48 h): 0.55 µM
- IC50 (Mino cells [6]; Alamar Blue): 0.13 µM
- apoptosis JeKo-1 (JeKo-1 cells [7]): dramatically increased apoptosis
- expression of HEXIM1 [18]: increase of expression of HEXIM1
- expression of cMYC and BCL2 [18]: decrease of expression
